Where two headings read alike, the source gives them in different places.

The experiment addresses T1, recominbant human tryptase, beta, from lung (Homo sapiens, UniProt P20231).
T1 construct: purchased Promega or Enzo Life Sciences G5631 or BML-SE418
Put plainly: Inhibition of tryptase activity by monomers and multimers (Boc-Gln-Ala-Arg-AMC fluorescence). It is filed as biochemical. To be noted: monomers against tryptase. Summed up:
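Recombinant human lung β-tryptase (1 nM final; stock with heparin sulfate and 1 M NaCl) preincubated with test substance, then 200 μM Boc-Gln-Ala-Arg-AMC added in 50 mM HEPES, 150 mM NaCl, 100 μM EDTA, 0.02% Tween-20, pH 7.4. AMC fluorescence (ex 367/em 468 nm) read every 30 s for 15–30 min; IC50 from Vmax concentration-response curves.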

The mark [1] stands for this setting: Table 5, read-out: Monomer IC50 range.
The mark [2] stands for this setting: entry marked (1:10), read-out: IC50 range group of additional monomers marked (1:10).
Setting [3] is: read-out: IC50 range group of additional monomers (boronic acid, benzooxaborole, ligands).

T1 sequence (P20231 31-275): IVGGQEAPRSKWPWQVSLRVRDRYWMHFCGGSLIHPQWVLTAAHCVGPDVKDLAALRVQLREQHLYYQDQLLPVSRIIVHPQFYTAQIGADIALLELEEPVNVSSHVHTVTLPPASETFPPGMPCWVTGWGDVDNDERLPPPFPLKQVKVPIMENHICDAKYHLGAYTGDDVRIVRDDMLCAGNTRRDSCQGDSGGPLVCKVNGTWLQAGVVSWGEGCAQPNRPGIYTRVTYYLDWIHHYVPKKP

In the case of `NCc1cccc(C2CCN(C(=O)c3ccc4ccn(CC(O)(C(=O)O)c5ccccc5)c4c3)CC2)c1` (centres unmarked) [T84, 3-(6-(4-(3-(aminomethyl)phenyl)piperidine-1-carbonyl)-1H-indol-1-yl)-2-hydroxy-2-phenylpropanoic acid], the IC50 was 0.0001 to 1 µM under setting [1] and 0.0001 to 1 µM under setting [2].

Consider `CONC(=O)c1ccc(CC(=O)N2CCC(c3cccc(CN)c3)CC2)cc1O` [T85 Å], for which the IC50 under setting [2] lay in the range of 0.0001 to 1 µM.

Consider `NCc1cccc(C2CCN(C(=O)/C=C/c3ccc(O)c(C(N)=O)c3)CC2)c1` [T86, (E)-5-(3-(4-(3-(aminomethyl)phenyl)piperidin-1-yl)-3-oxoprop-1-enyl)-2-hydroxybenzamide], for which the IC50 is, setting by setting: under setting [1], 1 to 10 µM; under setting [3], 1 to 10 µM.

Consider `CONC(=O)c1cc(C(=O)N2CCC(c3cccc(CN)c3)CC2)ccc1O` [T92, 5-(4-(3-(aminomethyl)phenyl)piperidine-1-carbonyl)-2-hydroxy-N-methoxybenzamide], for which the IC50 by setting is: under setting [1], 1 to 10 µM; under setting [3], 1 to 10 µM.

`NCc1cccc(C2CCN(C(=O)c3ccc(O)c(C(=O)NOc4ccccc4)c3)CC2)c1` [T92OPH]: the IC50 under setting [3] was 1 to 10 µM.

On to `NCc1ccc2c(c1)C1(CCN(C(=O)c3ccc(O)c(C(=O)NOc4ccccc4)c3)CC1)CO2` [T92PHSPIRO], for which, under setting [3], the IC50 lay within 1 to 10 µM.

As for `CONC(=O)c1cc(C(=O)N2CCC3(CC2)COc2ccc(CN)cc23)ccc1O` [T92SPIRO], the IC50 under setting [3] lay in the range of 0.0001 to 1 µM.

`NCc1cccc(C2CCN(C(=O)c3cc(=O)oc4c(O)c(O)ccc34)CC2)c1` [T96]: under setting [3], the IC50 lay in the range of 1 to 10 µM.

For the molecule `NCc1cccc(C2CCN(C(=O)Cc3cc(=O)oc4cc(O)c(O)cc34)CC2)c1` [T97, 4-(2-(4-(3-(aminomethyl)phenyl)piperidin-1-yl)-2-oxoethyl)-6,7-dihydroxy-2H-chromen-2-one], the IC50 lay within 1 to 10 µM under setting [1] and 1 to 10 µM under setting [3].

Turning to `NCc1cccc(C2CCN(C(=O)Cc3cc(=O)oc4c(O)c(O)ccc34)CC2)c1` [T98], the IC50 under setting [3] lay within 10 to 65 µM.

For the molecule `Cc1c(CC(=O)N2CCC(c3cccc(CN)c3)CC2)c(=O)oc2cc(O)c(O)cc12` [T99], the IC50 under setting [3] fell in the range of 1 to 10 µM.

On to `NCc1cccc(C2CCN(C(=O)c3cc4cc(O)c(O)cc4oc3=O)CC2)c1` [T100], for which the IC50 runs as follows: under setting [1], 10 to 65 µM; under setting [3], 10 to 65 µM.

Turning to `Cc1c(CC(=O)N2CCC(c3cccc(CN)c3)CC2)c(=O)oc2c(O)c(O)ccc12` [T101], the IC50 fell in the range of 0.0001 to 1 µM under setting [1] and 0.0001 to 1 µM under setting [3].

For `NCc1cccc(C2CCN(C(=O)c3cc4ccc(O)c(O)c4oc3=O)CC2)c1` [T102], the IC50 runs as follows: under setting [1], 0.0001 to 1 µM; under setting [2], 0.0001 to 1 µM.

For `NCc1cccc(C2CCN(C(=O)c3cccc(OCC(O)(C(=O)O)C4CCCC4)c3)CC2)c1` (centres unmarked) [T103, 3-(3-(4-(3-(aminomethyl)phenyl)piperidine-1-carbonyl)phenoxy)-2-cyclopentyl-2-hydroxypropanoic acid], the IC50 by setting is: under setting [1], 0.0001 to 1 µM; under setting [2], 0.0001 to 1 µM.

Take `COc1cc(C(=O)N2CCC3(CC2)COc2ccc(CN)cc23)cc(O)c1O` [T104SPIRO]: the IC50 under setting [3] is 0.0001 to 1 µM.

Regarding `COc1cc(C(=O)N2CCC(c3cccc(CN)c3)CC2)cc(O)c1O` [T104], under setting [3], the IC50 was 0.0001 to 1 µM.

Regarding `Cc1cc(C(=O)N2CCC(c3cccc(CN)c3)CC2)cc(-c2cccc(B(O)O)c2)c1C` [T107], under setting [3], the IC50 was in the range of 1 to 10 µM.

For the molecule `NCc1ccc2c(c1)C1(CCN(C(=O)c3ccc(Cl)c(-c4cccc(B(O)O)c4)c3)CC1)CO2` [T109SPIRO], the IC50 under setting [3] fell in the range of 0.0001 to 1 µM.

As for `NCc1ccc2c(c1)C1(CCN(C(=O)c3cccc(-c4cccc5c4COB5O)c3)CC1)CO2` [T112SPIRO], the IC50 under setting [3] fell in the range of 1 to 10 µM.

Turning to `Cc1cc(C(=O)N2CCC3(CC2)COc2ccc(CN)cc23)cc(CO)c1O` [T113SPIRO], the concentration for half-maximal inhibition (IC50) under setting [3] was in the range of 0.0001 to 1 µM.

`CONC(=O)c1cc(C(=O)N2CCC3(CC2)COc2ccc(CN)cc23)cc(C)c1O` [T114Spiro]: under setting [3], the IC50 was in the range of 0.0001 to 1 µM.

For `CSc1sc(C(=O)N2CCC3(CC2)COc2ccc(CN)cc23)cc1-c1cccc(B(O)O)c1` [T116SPIRO], the IC50 under setting [2] was in the range of 0.0001 to 1 µM.

As for `CSc1sc(C(=O)N2CCC3(CC2)COc2ccc(CN)cc23)cc1-c1cccc2c1C(C)OB2O` (centres unmarked) [T117GEMMONO], under setting [3], the IC50 lay in the range of 0.0001 to 1 µM.

On to `CSc1sc(C(=O)N2CCC3(CC2)COc2ccc(CN)cc23)cc1-c1cccc2c1COB2O` [T117SPIRO], for which the IC50 under setting [3] was 0.0001 to 1 µM.

Consider `CC(C)(O)c1ccc(C(=O)N2CCC(c3cccc(CN)c3)CC2)cc1O` [T126], for which the IC50 under setting [3] lay within 1 to 10 µM.

Consider `COc1ccc(C(=O)N2CCC(c3cccc(CN)c3)CC2)c(O)c1O` [T127], for which the IC50 under setting [3] fell in the range of 1 to 10 µM.

With `NCc1ccc2c(c1)C1(CCN(C(=O)c3cccc(-c4ccc(F)c(B(O)O)c4)c3)CC1)CO2` [T131SPIRO], under setting [3], the IC50 is 0.0001 to 1 µM.

For `NCc1ccc2c(c1)C1(CCN(C(=O)c3cccc(-c4cc(F)cc(B(O)O)c4)c3)CC1)CO2` [T132SPIRO], the IC50 under setting [3] was 1 to 10 µM.

Take `NCc1ccc2c(c1)C1(CCN(C(=O)c3cccc(-c4cccc(B(O)O)c4F)c3)CC1)CO2` [T133SPIRO]: the IC50 under setting [3] fell in the range of 0.0001 to 1 µM.

As to `CONC(=O)c1cc(C)cc(C(=O)N2CCC(c3cccc(CN)c3)CC2)c1O` [T136A], under setting [3], the half-maximal inhibitory concentration (IC50) lay in the range of 0.0001 to 1 µM.

Consider `CN(Cc1ccccc1B(O)O)c1cccc2c(C(=O)N3CCC(c4cccc(CN)c4)CC3)cccc12` [T143], for which the IC50 under setting [3] was in the range of 1 to 10 µM.

`Cc1c(CC(=O)N2CCC(c3cccc(CN)c3)CC2)c(=O)oc2cc(N(C)Cc3ccccc3B(O)O)ccc12` [T144]: under setting [3], the IC50 lay in the range of 1 to 10 µM.

In the case of `CN(Cc1ccccc1B(O)O)c1cccc(C(=O)N2CCC(c3cccc(CN)c3)CC2)c1` [T146], under setting [3], the IC50 was 10 to 65 µM.

Turning to `CN(Cc1ccccc1B(O)O)c1ccc(C(=O)N2CCC(c3cccc(CN)c3)CC2)cc1` [T147], under setting [3], the IC50 lay in the range of 1 to 10 µM.

For `CN(Cc1ccccc1B(O)O)c1ccc2c(C(=O)N3CCC(c4cccc(CN)c4)CC3)cccc2c1` [T154], under setting [3], the IC50 is 1 to 10 µM.

As to `CN(C)c1ccc(B(O)O)cc1-c1cccc(C(=O)N2CCC3(CC2)COc2ccc(CN)cc23)c1` [T155SPIRO], the IC50 under setting [3] fell in the range of 1 to 10 µM.

On to `NCc1cccc(C2CCN(C(=O)c3cnc4c(B(O)O)cccc4c3)CC2)c1` [T156], for which, under setting [3], the IC50 fell in the range of 0.0001 to 1 µM.

Turning to `CC(C)(C)ONC(=O)c1cc(C(=O)N2CCC3(CC2)COc2ccc(CN)cc23)ccc1O` [T920TBSPIRO], the IC50 under setting [3] lay in the range of 1 to 10 µM.

For orientation: IC50 means the concentration that inhibits the measured activity by half.

These data come from patent US11970448B2, “Monomers capable of dimerizing in an aqueous solution, and methods of using same” (CORNELL UNIVERSITY, priority 2011, dated 2024).
